{"source": "ChEMBL document CHEMBL3860067", "about": "“Investigation of the structure activity relationship of flufenamic acid derivatives at the human TRESK channel K2P18.1” (Bioorg Med Chem Lett, 2016)", "key": {"[1]": {"molecular_target": "T1, Potassium channel subfamily K member 18 (Homo sapiens, UniProt Q7Z418)", "T1 sequence (Q7Z418 whole entry)": "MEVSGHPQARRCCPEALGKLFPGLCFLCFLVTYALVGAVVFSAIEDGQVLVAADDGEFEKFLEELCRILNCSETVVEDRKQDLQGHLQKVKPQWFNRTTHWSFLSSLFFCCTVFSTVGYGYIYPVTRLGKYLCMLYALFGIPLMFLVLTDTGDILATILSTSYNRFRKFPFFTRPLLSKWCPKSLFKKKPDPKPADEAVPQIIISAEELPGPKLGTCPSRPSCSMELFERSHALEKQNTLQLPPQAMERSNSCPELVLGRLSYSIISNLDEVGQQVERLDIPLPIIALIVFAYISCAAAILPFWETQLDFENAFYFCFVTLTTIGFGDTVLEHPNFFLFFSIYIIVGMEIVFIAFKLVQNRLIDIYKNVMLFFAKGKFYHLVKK", "assay": "Channel blocking activity at human TRESK channel"}, "[2]": {"molecular_target": "T1, Potassium channel subfamily K member 18", "assay": "(§1) Activation of human TRESK channel expressed in HEK293 cells assessed as induction of channel current by whole cell patch clamp assay", "assay_type": "cell-based"}, "[3]": {"assay": "Lipophilicity, log D of the compound", "assay_type": "physicochemical", "conditions": "octanol/water"}, "[4]": {"molecular_target": "T1, Potassium channel subfamily K member 18", "assay": "(§2) Activation of human TRESK channel relative to control"}, "[5]": {"molecular_target": "T1, Potassium channel subfamily K member 18", "assay": "Channel blocking activity at human TRESK channel expressed in HEK293 cells at 100 uM by whole cell patch clamp assay", "assay_type": "cell-based", "conditions": "hek293, 100 µM"}, "[6]": {"molecular_target": "T2, Potassium channel subfamily K member 18 (Homo sapiens) (UniProt Q7Z418)", "T2 sequence (whole entry)": "T1 sequence (Q7Z418 whole entry)", "assay": "Activation of human TRESK channel expressed in HEK293 cells assessed as induction of channel current at 100 uM by whole cell patch clamp assay relative to control", "assay_type": "cell-based"}, "[7]": {"molecular_target": "T2, Potassium channel subfamily K member 18 (Homo sapiens)", "assay": "as §1", "assay_type": "cell-based"}, "[8]": {"molecular_target": "T2, Potassium channel subfamily K member 18 (Homo sapiens)", "assay": "as §2"}}, "note": "Activity calls are given as the source filed them. The rule behind the calls is not given here.", "data": [{"smiles": "CCN(CC)CC(=O)Nc1c(C)cccc1C", "note": "[LIDOCAINE]", "values": [{"measurement": "IC50", "setting": "[1]", "value": "> 100", "unit": "µM"}]}, {"smiles": "O=C(O)c1ccccc1Nc1cccc(C(F)(F)F)c1", "note": "[FLUFENAMIC ACID]", "values": [{"measurement": "EC50", "setting": "[2]", "value": 474, "unit": "µM"}, {"measurement": "logD", "setting": "[3]", "value": 2.2}, {"measurement": "EC50", "setting": "[4]", "value": "> 100", "unit": "µM"}]}, {"smiles": "Cc1cc(C)c(Nc2ccccc2C(=O)O)c(C)c1", "values": [{"measurement": "Activity", "setting": "[5]", "value": "Active"}]}, {"smiles": "FC(F)(F)c1cccc(Nc2ccccc2-c2nnn[nH]2)c1", "values": [{"measurement": "Activity", "setting": "[5]", "value": "Active"}]}, {"smiles": "CCCCc1cccc(Nc2ccccc2C(=O)O)c1", "values": [{"measurement": "Activity", "setting": "[6]", "value": "Active"}]}, {"smiles": "O=C(O)c1ccccc1Nc1cccc(Oc2ccccc2)c1", "values": [{"measurement": "Activity", "setting": "[5]", "value": "Active"}]}, {"smiles": "N#Cc1ccccc1Nc1cccc(C(F)(F)F)c1", "values": [{"measurement": "Activity", "setting": "[5]", "value": "Active"}]}, {"smiles": "CC(C)(C)c1cccc(Nc2ccccc2C(=O)O)c1", "values": [{"measurement": "EC50", "setting": "[2]", "value": 45, "unit": "µM"}, {"measurement": "Emax", "setting": "[7]", "value": 354, "unit": "%"}, {"measurement": "logD", "setting": "[3]", "value": 3.2}]}, {"smiles": "O=C(O)c1ccccc1Nc1cccc2c1CCCC2", "values": [{"measurement": "Activity", "setting": "[5]", "value": "Active"}]}, {"smiles": "NC(=O)c1ccccc1Nc1cccc(C(F)(F)F)c1", "values": [{"measurement": "Activity", "setting": "[5]", "value": "Active"}]}, {"smiles": "O=C(O)c1ccccc1Nc1cccc(-c2ccccc2)c1", "values": [{"measurement": "Activity", "setting": "[5]", "value": "Active"}]}, {"smiles": "CC(C)(C)c1cccc(Nc2ccccc2-c2nnn[nH]2)c1", "values": [{"measurement": "EC50", "setting": "[2]", "value": 18.8, "unit": "µM"}, {"measurement": "Emax", "setting": "[7]", "value": 102, "unit": "%"}, {"measurement": "logD", "setting": "[3]", "value": 2.7}]}, {"smiles": "c1ccc(-c2nnn[nH]2)c(Nc2cccc3c2CCCC3)c1", "values": [{"measurement": "EC50", "setting": "[4]", "value": 6, "unit": "µM"}, {"measurement": "Emax", "setting": "[8]", "value": 75, "unit": "%"}]}]}
